Assay results from paper PMC12442081, “Combating Fuel Biocontamination: Tailored Antimicrobial Peptides and an Innovative Delivery Strategy” (ACS Applied Bio Materials, 2025).

Legend:
[1] = system: BL+DN coculture; format: cell-based, B. licheniformis + D. nishinomiyaensis
Procedure: (§1) All of the bacterial species were grown overnight at 37 °C in LB broth. 10^7 CFU/mL of cells were resuspended in fresh culture and grown until the mid log phase. , The bacterial cells were adjusted to a concentration of 5 × 10^5 CFU/mL to quantify the MIC. Equal volumes of the respective bacterial cultures were incubated with the serially diluted peptides in 96-well microtiter plate and incubated overnight at 37 °C in ambient air. Microorganisms without peptides were treated as the positive control, while uninoculated broth was used as the negative control. The MIC was taken as the lowest peptide concentration at which observable bacteria growth was inhibited, as measured by a microplate reader (Biotek Synergy H1 microplate reader). Experiments were performed in triplicates, and the mean MIC values were determined. A similar study was performed to understand the effect of peptide purity, i.e., ranging from 70 to 95%, on the peptide MIC. […]
(§2) fresh medium at equal proportions (v/v). Multiple combinations of microbial cocultures were prepared […]
(§3) Table S2. Schematic representation of the microbial cocultures grown in lab.
(§4) Bacterial clusters Fungal clusters
(§5) Gram-positive Gram-negative
(§6) Actinobacteria/DN Firmicutes/BL Proteobacteria/SP Ascomycota/HR […]
(§7) (b) The three upper panels […]
(§8) controlling the growth of microbial cocultures.

[2] = system: Bacillus licheniformis (BL) ATCC 14580; format: cell-based; conditions: ATCC 14580
In short: (§9)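 Overnight LB cultures, 37 °C → mid-log → 5 × 10^5 CFU/mL; 1:1 with serially diluted peptides, o/n 37 °C, ambient air. MIC = lowest conc. inhibiting growth (plate reader). n = 3, mean reported.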

[3] = system: Roseomonas mucosa (RM) ATCC BAA-692; format: cell-based
In short: as §9

[4] = system: Sphingomonas paucimobilis (SP); format: cell-based
In short: as §9

[5] = system: HR+BL+DN coculture; format: cell-based, H. resinae + B. licheniformis + D. nishinomiyaensis
Procedure: as §1, §2, §3, §4, §5, §6, §7, §8

[6] = system: HR+SP coculture; format: cell-based, H. resinae + S. paucimobilis
Procedure: as §1, §2, §3, §4, §5, §6, §7, §8

[7] = system: B. licheniformis; format: cell-based, Bacillus licheniformis; conditions: 2 h
Procedure: (§10) The stability of the peptides against one Gram-positive (B. licheniformis) and Gram-negative (S. paucimobilis) bacteria was assessed by determining their MIC in chymotrypsin (protease), serum, and salt (NaCl). The experiments were adopted from Selvarajan et.al. The fold change in MIC with respect to the control was calculated and determined for each peptide against the microbial clusters.
(§11) To determine the susceptibility of the engineered peptides, which are abundant in Trp, to protease degradation, chymotrypsin, which cleaves Tyr, Phe, and Trp at physiological pH was chosen as the model protease. The protocol described by Wang et.al. (2014) was used with slight modifications. Peptides were incubated with chymotrypsin at a molar ratio of 40:1 (peptide: protease) in 10 mM PBS buffer (pH7.4) at 37 °C, and samples were analyzed after 2 h. The enzyme reaction was terminated by incubating the samples at 80 °C for 10 min. The incubated peptide mixtures were then serially diluted in 96-well plates to determine the MIC values of the microbial strains.
(§12) The stability of the peptides in the presence of the serum was tested using a 10% fetal bovine serum (heat inactivated).
(§13) We also studied the effects of 600 mM NaCl (in vitro) and natural seawater (NSW) on the MICs of the engineered peptides.

[8] = system: HR+DN+SP coculture; format: cell-based, H. resinae + D. nishinomiyaensis + S. paucimobilis
Procedure: as §1, §2, §3, §4, §5, §6, §7, §8

[9] = system: HR+BL coculture; format: cell-based, H. resinae + B. licheniformis
Procedure: as §1, §2, §3, §4, §5, §6, §7, §8

[10] = system: SP+BL coculture; format: cell-based, S. paucimobilis + B. licheniformis
Procedure: as §1, §2, §3, §4, §5, §6, §7, §8

[11] = system: HR+DN coculture; format: cell-based, H. resinae + D. nishinomiyaensis
Procedure: as §1, §2, §3, §4, §5, §6, §7, §8

[12] = system: DN+SP coculture; format: cell-based, D. nishinomiyaensis + S. paucimobilis
Procedure: as §1, §2, §3, §4, §5, §6, §7, §8

[13] = system: HR+BL+SP coculture; format: cell-based, H. resinae + B. licheniformis + S. paucimobilis
Procedure: as §1, §2, §3, §4, §5, §6, §7, §8

[14] = system: S. paucimobilis; format: cell-based, Sphingomonas paucimobilis; conditions: 2 h
Procedure: as §10, §11, §12, §13

[15] = system: Micrococcus yunnanensis (MY) ATCC 12698; format: cell-based
In short: as §9

[16] = system: Macrococcus caseolyticus (MC) ATCC 13548; format: cell-based
In short: as §9

[17] = system: Pseudomonas aeruginosa (PA) ATCC 39327; format: cell-based; conditions: ATCC 39327
In short: as §9

[18] = system: Dermacoccus nishinomiyaensis (DN) ATCC 29093; format: cell-based
In short: as §9

[19] = system: Kocuria rosea (KR) ATCC 186; format: cell-based
In short: as §9

[20] = system: Hormoconis resinae (HR) ATCC 20267; format: cell-based
Procedure: All of the bacterial species were grown overnight at 37 °C in LB broth. 10^7 CFU/mL of cells were resuspended in fresh culture and grown until the mid log phase. , The bacterial cells were adjusted to a concentration of 5 × 10^5 CFU/mL to quantify the MIC. Equal volumes of the respective bacterial cultures were incubated with the serially diluted peptides in 96-well microtiter plate and incubated overnight at 37 °C in ambient air. Microorganisms without peptides were treated as the positive control, while uninoculated broth was used as the negative control. The MIC was taken as the lowest peptide concentration at which observable bacteria growth was inhibited, as measured by a microplate reader (Biotek Synergy H1 microplate reader). Experiments were performed in triplicates, and the mean MIC values were determined. A similar study was performed to understand the effect of peptide purity, i.e., ranging from 70 to 95%, on the peptide MIC.
The same experimental procedures that were conducted for the antibacterial assay were used to determine the MIC of the peptides against the fungal strain, H. resinae.

Row | MIC [1] | MIC [2] | MIC [3] | MIC [4] | MIC [5] | MIC [6] | MIC under different treatments [7] | MIC [8] | MIC [9] | MIC [10] | MIC [11] | MIC [12] | MIC [13] | MIC under different treatments [14] | MIC [15] | MIC [16] | MIC [17] | MIC [18] | MIC [19] | MIC [20] | SMILES
1 | 30 µM | 1.9 µM | 1.9 µM | 1.9 µM | 7.5 µM | 0.9 µM | ≤ 4 µM | 15 µM | 0.9 µM | 1.87 µM | 0.9 µM | 3.7 µM | 3.7 µM | ≤ 4 µM | – | – | – | – | – | – | CC[C@H](C)[C@H](N)C(=O)N[C@@H](CC(C)C)C(=O)N1CCC[C@H]1C(=O)N[C@@H](Cc1c[nH]c2ccccc12)C(=O)N[C@@H](CCCCN)C(=O)N[C@@H](Cc1c[nH]c2ccccc12)C(=O)N1CCC[C@H]1C(=O)N[C@@H](Cc1c[nH]c2ccccc12)C(=O)N[C@@H](Cc1c[nH]c2ccccc12)C(=O)N1CCC[C@H]1C(=O)N[C@@H](Cc1c[nH]c2ccccc12)C(=O)N[C@@H](CCCCN)C(=O)N[C@@H](CCCNC(=N)N)C(=O)O [P3]
2 | 60 µM | 1.9 µM | – | 1.9 µM | 1.87 µM | 30 µM | ≤ 4 µM | 3.7 µM | 3.7 µM | 120 µM | 1.87 µM | 30 µM | 1.87 µM | ≤ 4 µM | 0.9 µM | 0.9 µM | 1.9 µM | 0.9 µM | – | – | CC[C@H](C)[C@H](N)C(=O)N[C@@H](CC(C)C)C(=O)N1CCC[C@H]1C(=O)N[C@@H](Cc1ccccc1)C(=O)N[C@@H](CCCCN)C(=O)N[C@@H](Cc1c[nH]c2ccccc12)C(=O)N1CCC[C@H]1C(=O)N[C@@H](Cc1c[nH]c2ccccc12)C(=O)N[C@@H](Cc1c[nH]c2ccccc12)C(=O)N1CCC[C@H]1C(=O)N[C@@H](Cc1c[nH]c2ccccc12)C(=O)N[C@@H](CCCNC(=N)N)C(=O)N[C@@H](CCCNC(=N)N)C(=O)O [P11]
3 | 1.87 µM | 0.9 µM | – | 0.9 µM | 0.9 µM | 7.5 µM | ≤ 4 µM | 7.5 µM | 7.5 µM | 7.5 µM | 0.9 µM | 15 µM | 0.9 µM | ≤ 4 µM | 0.9 µM | 1.9 µM | 3.8 µM | 0.9 µM | 1.9 µM | 3.8 µM | CC[C@H](C)[C@H](N)C(=O)N[C@@H](CC(C)C)C(=O)N[C@@H](Cc1ccc(O)cc1)C(=O)N[C@@H](Cc1c[nH]c2ccccc12)C(=O)N[C@@H](CCCCN)C(=O)N[C@@H](Cc1c[nH]c2ccccc12)C(=O)N1CCC[C@H]1C(=O)N[C@@H](Cc1c[nH]c2ccccc12)C(=O)N[C@@H](Cc1c[nH]c2ccccc12)C(=O)N1CCC[C@H]1C(=O)N[C@@H](Cc1c[nH]c2ccccc12)C(=O)N[C@@H](CCCNC(=N)N)C(=O)N[C@@H](CCCNC(=N)N)C(=O)O [P17]
